Series [1] can be described thus: Aerodynamic particle size distribution by Andersen Cascade Impactor (ACI). It is filed as physicochemical. As to conditions: Samples I-V, flow rate 28.3 L/min. As to the method: An Andersen Cascade Impactor instrument (ACI) was used to determine the particle size distribution of Samples I-V. The test was conducted at a flow rate of 28.3 L/min. Deposition of the active substance on each ACI plate was confirmed by high pressure liquid chromatography. The particle size was expressed in terms of mass median aerodynamic diameter (MMAD) and Geometric Standard Deviation (GSD).

Series [2] in a line: Aerodynamic particle size distribution of Sample VI by Next Generation Impactor (NGI), soft mist inhaler. It is filed as physicochemical. As to conditions: NGI 30 L/minute, RH 90±2%. The procedure: The aerodynamic particle size distribution was determined using a Next Generation Impactor instrument (NGI). The soft mist inhaler was held close to the NGI inlet until no aerosol was visible. The flow rate of the NGI was set to 30 L/minute and was operated under ambient temperature and a relative humidity (RH) of 90±2%.
Sample VI was discharged into the NGI. Fractions of the dose were deposited at different stages of the NGI, in accordance with the particle size of the fraction. Each fraction was washed from the stage and analyzed using HPLC.
The particle size distribution was expressed in terms of mass median aerodynamic diameter (MMAD) and geometric standard deviation (GSD).

The record followed here is patent US20210275449A1, “Inhalable Formulation of a Solution Containing Glycopyrronium Bromide” (priority 2020, published 2021).

On to “(3RS)-3-[(2 SR)-(2-cyclopentyl-2-hydroxy-2-penylacetyl)oxy]-1,1-dimethlypyrrolidinium bromide [Glycopyrronium bromide]”, for which, in series [1], the GSD was 1.7 and the MMAD was 4.4 μm. Besides, in series [2], the “Fine Particle Fraction (FPF)” value is 70.45%, the “Fine particle dose (FPD)” value was 8.44 µg, the GSD entry was “less than 2” and the MMAD result is “less than 6 μm”. In series [2] (listed as Glycopyrrolate), this substance displayed a GSD of 1.77 and an MMAD of 4.05 μm.
